{"source": "patent US8912121B2", "about": "“Herbicidal compositions comprising 4-amino-3-chloro-5-fluoro-6-(4-chloro-2-fluoro-3-methoxyphenyl)pyridine-2-carboxylic acid or a derivative thereof and certain PS II inhibitors” (Dow Agrosciences LLC, priority 2012, dated 2014)", "key": {"[1]": {"tested_on": "LEFCH (Leptochloa chinensis, Chinese sprangletop)", "assay": "In-water applied mixtures, transplanted paddy rice, greenhouse", "format": "in vivo, Leptochloa chinensis (L.) Nees", "method": "(§1) Weed seeds or nutlets of the desired test plant species were planted in puddled soil (mud) prepared by mixing a shredded, non-sterilized mineral soil (50.5 percent silt, 25.5 percent clay, and 24 percent sand, with a pH of about 7.6 and an organic matter content of about 2.9 percent) and water at a 1:1 volumetric ratio. The prepared mud was dispensed in 365 mL aliquots into 16-ounce (oz.) non-perforated plastic pots with a surface area of 86.59 square centimeters (cm^2) leaving a headspace of 3 centimeters (cm) in each pot Mud was allowed to dry overnight prior to planting or transplanting. Rice seeds were planted in Sun Gro MetroMix® 306 planting mixture, which typically has a pH of 6.0 to 6.8 and an organic matter content of about 30 percent, in plastic plug trays. Seedlings at the second or third leaf stage of growth were transplanted into 840 mL of mud contained in 32-oz. non-perforated plastic pots with a surface area of 86.59 cm^2 4 days prior to herbicide application. The paddy was created by filling the headspace of the pots with 2.5 to 3 cm of water. When required to ensure good germination and healthy plants, a fungicide treatment and/or other chemical or physical treatment was applied. The plants were grown for 4-22 days in a greenhouse with an approximate 14 h photoperiod which was maintained at about 29° C during the day and 26° C. during the night. Nutrients were added as Osmocote® (19:6:12, N:P:K+ minor nutrients) at 2 g per 16-oz. pot and 4 g per 32-oz. pot. Water was added on a regular basis to maintain the paddy flood, and supplemental lighting was provided with overhead metal halide 1000-Watt lamps as necessary. The plants were employed for testing when they reached the first through fourth true leaf stage.\n(§2) Treatments consisted of the acid or esters of 4-amino-3-chloro-5-fluoro-6-(4-chloro-2-fluoro-3-methoxy-phenyl)pyridine-2-carboxylic acid (compound A) each formulated as an SC (suspension concentrate) and various herbicidal components alone and in combination. Forms of compound A were applied on an acid equivalent basis.\n(§3) Other herbicidal components were applied on an active ingredient basis and included photosystem II (PSII)-inhibits propanil formulated as […] bentazon-sodium formulated as Basagran®, and simetryne (technical grade material).\n(§4) Treatment requirements for each compound or herbicidal component were calculated based upon the rates being tested, the concentration of active ingredient or acid equivalent in the formulation, an application volume of 2 mL per component per pot, and an application area of 86.59 cm^2 per pot.\n(§5) For formulated compounds, a measured amount was placed in an individual 100 or 200 mL glass vial and was dissolved in a volume of 1.25% (v/v) Agri-Dex® crop oil concentrate to obtain application solutions.\n(§6) For technical grade compounds, a weighed amount was placed in an individual 100 to 200 mL glass vial and was dissolved in a volume of acetone to obtain concentrated stock solutions. […] The concentrated stock solutions obtained were diluted with an equivalent volume of an aqueous mixture containing 2.5% (v/v) crop oil concentrate so that the final application solutions contained 1.25% (v/v) crop oil concentrate.\n(§7) Applications were made by injecting with a pipetter appropriate amounts of the application solutions, individually and sequentially, into the aqueous layer of the paddy. Control plants were treated in the same manner with the solvent blank. Applications were made so that all treated plant material received the same concentrations of acetone and crop oil concentrate.\n(§8) The treated plants and control plants were placed in a greenhouse as described above and water was added as needed to maintain a paddy flood. After approximately 3 weeks the condition of the test plants as compared with that of the untreated plants was determined visually and scored on a scale of 0 to 100 percent where 0 corresponds to no injury or growth inhibition and 100 corresponds to complete kill. […]"}, "[2]": {"tested_on": "IPOHE (Ipomoea hederacea, ivyleaf morningglory)", "assay": "Postemergence foliar-applied mixtures, direct seeded rice, greenhouse", "format": "in vivo, Ipomoea hederacea Jacq.", "conditions": "post-emergence, read-out: Visual Weed Control (%) Obs", "text": "(§9) Seeds or nutlets of the desired test plant species were planted in a soil matrix prepared by mixing a loam or sandy loam soil (e.g., 28.6 percent silt, 18.8 percent clay, and 52.6 percent sand, with a pH of about 5.8 and an organic matter content of about 1.8 percent) and calcareous grit in an 80 to 20 ratio. The soil matrix was contained in plastic pots with a volume of 1 quart and a surface area of 83.6 square centimeters (cm^2). When required to ensure good germination and healthy plants, a fungicide treatment and/or other chemical or physical treatment was applied. The plants were grown for 8-22 days in a greenhouse with an approximate 14 h photoperiod which was maintained at about 29° C. during the day and 26° C. during the night. Nutrients (Peters Excel® 15-5-15 5-Ca 2-Mg and iron chelate) were applied in the irrigation solution as needed and water was added on a regular basis. Supplemental lighting was provided with overhead metal halide 1000-Watt lamps as necessary. The plants were employed for testing when they reached the first through fourth true leaf stage.\n(§10) Treatments consisted of the acid or esters of 4-amino-3-chloro-5-fluoro-6-(4-chloro-2-fluoro-3-methoxy-phenyl) pyridine-2-carboxylic acid (Compound A), each formulated as an SC (suspension concentrate), and various herbicidal components alone and in combination. Forms of compound A were applied on an acid equivalent basis.\n(§11) Other herbicidal components were applied on an active ingredient basis and included Photosystem II (PSII)-inhibiting herbicides propanil formulated as Stam® M4 EC, bentazon-sodium formulated as Basagran®, atrazine formulated as Atrazine 90 WDG, bromoxynil octanoate ester formulated as Buctril®, simetryne (technical grade material), simazine formulated as Princep® Caliber 90, ioxynil (technical grade material), cyanazine (technical grade material), and hexazinone (technical grade material).\n(§12) Treatment requirements were calculated based upon the rates being tested, the concentration of active ingredient or acid equivalent in the formulation, and a 12 mL application volume at a rate of 187 L/ha.\n(§13) For treatments comprised of formulated compounds, measured amounts of compounds were placed individually in 25 mL glass vials and diluted in a volume of 1.25% (v/v) Agri-Dex® crop oil concentrated to obtain 12× stock solutions. […] Application solutions were prepared by adding an appropriate amount of each stock solution (e.g., 1 mL) and diluted to the appropriate final concentrations with the addition of 10 mL of an aqueous mixture of 1.25% (v/v) crop oil concentrate so that the final spray solutions contained 1.25+/−0.05% (v/v) crop oil concentrate.\n(§14) For treatments comprised of technical compounds, weighed amounts can be placed individually in 25 mL glass vials and dissolved in a volume of 97:3 v/v acetone/DMSO to obtain 12× stock solutions. […] Application solutions can be prepared by adding an appropriate amount of each stock solution (e.g., 1 mL) and diluted to the appropriate final concentrations with the addition of 10 mL of an aqueous mixture of 1.5% (v/v) crop oil concentrate so that the final spray solutions contain 1.25% (v/v) crop oil concentrate. When technical materials are used, the concentrated stock solutions can be added to the spray solutions so that the final acetone and DMSO concentrations of the application solutions are 16.2% and 0.5%, respectively.\n(§15) For treatments comprised of formulated and technical compounds, weighed amounts of the technical materials were placed individually in 25 mL glass vials and dissolved in a volume of 97:3 v/v acetone/DMSO to obtain 12× stock solutions, and measured amounts of the formulated compounds were placed individually in 25 mL glass vials and diluted in a volume of 1.5% (v/v) crop oil concentrate or water to obtain 12× stock solutions. […]"}, "[3]": {"tested_on": "SCPMA (Schoenoplectus maritimus, sea clubrush)", "assay": "In-water applied mixtures, transplanted paddy rice, greenhouse", "format": "in vivo, Schoenoplectus maritimus (L.) Lye", "conditions": "1120 g ae/ha; 20 DAA", "method": "as §1, §2, §3, §4, §5, §6, §7, §8"}, "[4]": {"tested_on": "COMBE (Commelina benghalensis, Benghal dayflower)", "assay": "Postemergence foliar-applied mixtures, direct seeded rice, greenhouse", "format": "in vivo, Commelina benghalensis L.", "conditions": "280 g ai/ha; 20 DAA", "text": "as §9, with “stage. […]” for “stage.”\nas §12\n(§16) For treatments comprised of formulated compounds, measured amounts of compounds were placed individually in 25 mL glass vials and diluted in a volume of 1.25% (v/v) Agri-Dex® crop oil concentrated to obtain 12× stock solutions. […]\nas §15"}, "[5]": {"tested_on": "ECHOR (Echinochloa oryzoides, early watergrass)", "assay": "In-water applied mixtures, transplanted paddy rice, greenhouse", "format": "in vivo, Echinochloa oryzoides (Ard.) Fritsch", "method": "as §1, §2, §3, §4, §5, §6, §7, §8"}, "[6]": {"tested_on": "ECHCG (Echinochloa crusgalli, barnyardgrass)", "assay": "In-water applied mixtures, transplanted paddy rice, greenhouse", "format": "in vivo, Echinochloa crusgalli (L.) Beauv.", "conditions": "21 DAA", "method": "as §1, with “stage. […]” for “stage.”\nas §4\nFor formulated compounds, a measured amount was placed in an individual 100 or 200 mL glass vial and was dissolved in a volume of 1.25% (v/v) Agri-Dex® crop oil concentrate to obtain application solutions. […]\nas §8"}, "[7]": {"tested_on": "ECHCO (Echinochloa colona, junglerice)", "assay": "Postemergence foliar-applied mixtures, direct seeded rice, greenhouse", "format": "in vivo, Echinochloa colona (L.) Link", "conditions": "450 g ai/ha; 21 DAA", "text": "as §9, §10, §11, §12, §13, §14, §15"}, "[8]": {"tested_on": "CYPRO (Cyperus rotundus, purple nutsedge)", "assay": "In-water applied mixtures, transplanted paddy rice, greenhouse", "format": "in vivo, Cyperus rotundus L.", "conditions": "19 DAA", "method": "as §1, §2, §3, §4, §5, §6, §7, §8"}, "[9]": {"tested_on": "FIMMI (Fimbristylis miliacea, globe fringerush)", "assay": "In-water applied mixtures, transplanted paddy rice, greenhouse", "format": "in vivo, Fimbristylis miliacea (L.) Vahl", "conditions": "19 DAA", "method": "as §1, §2, §3, §4, §5\nFor technical grade compounds, a weighed amount was placed in an individual 100 to 200 mL glass vial and was dissolved in a volume of acetone to obtain concentrated stock solutions. […]\nas §8"}, "[10]": {"tested_on": "LEFCH (Leptochloa chinensis, Chinese sprangletop)", "assay": "Postemergence foliar-applied mixtures, direct seeded rice, greenhouse", "format": "in vivo, Leptochloa chinensis (L.) Nees", "conditions": "225 g ai/ha; 22 DAA", "text": "as §9, with “stage. […]” for “stage.”\nas §12, §16, §15"}, "[11]": {"tested_on": "CYPIR (Cyperus iria, rice flatsedge)", "assay": "Postemergence foliar-applied mixtures, direct seeded rice, greenhouse", "format": "in vivo, Cyperus iria L.", "conditions": "22 DAA", "text": "as §9, §10, §11, §12, §13, §14, §15"}}, "note": "Where two headings read alike, the source gives them in different places.", "data": [{"smiles": "CC(C)N1C(=O)c2ccccc2NS1(=O)=O", "note": "[Bentazon-sodium, 3-(1-methylethyl)-1H-2,1,3-benzothiadiazin-4(3H)-one 2,2-dioxide, reference compound]", "values": [{"measurement": "Visual Weed Control (%) Obs", "setting": "[1]; 420 g ae/ha, 21 DAA", "result": 0, "unit": "%"}, {"measurement": "Visual Weed Control (%) Obs", "setting": "[1]; 840 g ae/ha, 21 DAA", "result": 0, "unit": "%"}, {"measurement": "Visual Weed Control (%) Obs", "setting": "[1]; 1120 g ae/ha, 20 DAA", "result": 0, "unit": "%"}, {"measurement": "pest or weed control at 840 g/ha", "setting": "[2]; 480 h, 840 g ae/ha, 20 DAA", "result": 13, "unit": "%"}, {"measurement": "pest or weed control at 105 g/ha", "setting": "[2]; 504 h, 105 g ai/ha, 21 DAA", "result": 0, "unit": "%"}, {"measurement": "pest or weed control at 210 g/ha", "setting": "[2]; 504 h, 210 g ai/ha, 21 DAA", "result": 0, "unit": "%"}, {"measurement": "pest or weed control at 420 g/ha", "setting": "[2]; 504 h, 420 g ai/ha, 21 DAA", "result": 10, "unit": "%"}, {"measurement": "pest or weed control at 840 g/ha", "setting": "[2]; 504 h, 840 g ai/ha, 21 DAA", "result": 13, "unit": "%"}, {"measurement": "Visual Weed Control (%) Obs", "setting": "[3]", "result": 0, "unit": "%"}, {"measurement": "Visual Weed Control (%) Obs", "setting": "[4]", "result": 10, "unit": "%"}, {"measurement": "Visual Weed Control (%) Obs", "setting": "[5]; 1120 g ae/ha, 20 DAA", "result": 0, "unit": "%"}, {"measurement": "Visual Weed Control (%) Obs", "setting": "[6]; 420 g ae/ha", "result": 0, "unit": "%"}, {"measurement": "Visual Weed Control (%) Obs", "setting": "[6]; 840 g ae/ha", "result": 0, "unit": "%"}]}, {"smiles": "CCNc1nc(NCC)nc(SC)n1", "note": "[Simetryne, N,N′-diethyl-6-(methylthio)-1,3,5-triazine-2,4-diamine, reference compound]", "values": [{"measurement": "Visual Weed Control (%) Obs", "setting": "[7]", "result": 45, "unit": "%"}, {"measurement": "Visual Weed Control (%) Obs", "setting": "[8]; 112.5 g ai/ha", "result": 0, "unit": "%"}, {"measurement": "Visual Weed Control (%) Obs", "setting": "[8]; 225 g ai/ha", "result": 0, "unit": "%"}, {"measurement": "Visual Weed Control (%) Obs", "setting": "[8]; 450 g ai/ha", "result": 0, "unit": "%"}, {"measurement": "Visual Weed Control (%) Obs", "setting": "[9]; 112.5 g ai/ha", "result": 45, "unit": "%"}, {"measurement": "Visual Weed Control (%) Obs", "setting": "[9]; 225 g ai/ha", "result": 90, "unit": "%"}, {"measurement": "Visual Weed Control (%) Obs", "setting": "[10]", "result": 40, "unit": "%"}, {"measurement": "Visual Weed Control (%) Obs", "setting": "[5]; 112.5 g ai/ha, 19 DAA", "result": 0, "unit": "%"}, {"measurement": "Visual Weed Control (%) Obs", "setting": "[5]; 225 g ai/ha, 19 DAA", "result": 10, "unit": "%"}, {"measurement": "Visual Weed Control (%) Obs", "setting": "[11]; 112.5 g ai/ha", "result": 0, "unit": "%"}, {"measurement": "Visual Weed Control (%) Obs", "setting": "[11]; 225 g ai/ha", "result": 0, "unit": "%"}, {"measurement": "Visual Weed Control (%) Obs", "setting": "[11]; 450 g ai/ha", "result": 30, "unit": "%"}]}]}
